{
  "source": "ChEMBL document CHEMBL3407333",
  "about": "“Synthesis and biological evaluation of second-generation tropanol-based androgen receptor modulators” (J Med Chem, 2015)",
  "key": {"Androgen receptor [1]": {"target": "T1, Androgen receptor (Homo sapiens, UniProt P10275)", "T1 sequence (P10275 whole entry)": "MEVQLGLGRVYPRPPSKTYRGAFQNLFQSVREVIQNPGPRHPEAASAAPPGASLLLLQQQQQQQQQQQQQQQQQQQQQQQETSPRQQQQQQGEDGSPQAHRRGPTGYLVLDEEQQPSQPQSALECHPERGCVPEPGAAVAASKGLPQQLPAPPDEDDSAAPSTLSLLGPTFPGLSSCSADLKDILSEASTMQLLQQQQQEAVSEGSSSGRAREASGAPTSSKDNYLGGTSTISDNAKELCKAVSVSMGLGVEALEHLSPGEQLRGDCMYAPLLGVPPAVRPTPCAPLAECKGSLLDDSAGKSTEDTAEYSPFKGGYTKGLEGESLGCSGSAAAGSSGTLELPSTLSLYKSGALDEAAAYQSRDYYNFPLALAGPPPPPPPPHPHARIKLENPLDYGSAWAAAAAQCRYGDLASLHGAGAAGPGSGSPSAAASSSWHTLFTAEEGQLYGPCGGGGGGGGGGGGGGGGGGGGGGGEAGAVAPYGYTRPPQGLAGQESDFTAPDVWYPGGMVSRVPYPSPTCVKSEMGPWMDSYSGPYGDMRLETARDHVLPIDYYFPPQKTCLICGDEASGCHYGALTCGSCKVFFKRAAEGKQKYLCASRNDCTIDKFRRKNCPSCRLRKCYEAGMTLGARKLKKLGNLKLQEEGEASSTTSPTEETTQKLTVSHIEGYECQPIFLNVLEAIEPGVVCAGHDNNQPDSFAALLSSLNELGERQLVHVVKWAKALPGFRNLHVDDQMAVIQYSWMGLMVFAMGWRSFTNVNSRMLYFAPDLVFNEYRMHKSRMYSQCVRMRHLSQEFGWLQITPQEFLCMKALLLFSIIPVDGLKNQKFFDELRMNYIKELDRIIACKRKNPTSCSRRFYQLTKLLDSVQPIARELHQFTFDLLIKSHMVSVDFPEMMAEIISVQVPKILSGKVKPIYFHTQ", "test": "Displacement of [3H]R1881 from pSG5-tagged human androgen receptor expressed in COS1 cells assessed as relative binding inhibition", "assay_type": "cell-based, COS-1"}, "Androgen receptor [2]": {"target": "T1, Androgen receptor", "test": "Antagonist activity against pSG5-tagged human androgen receptor expressed in COS1 cells assessed as reduction in receptor-mediated transcriptional activity by AR-regulated rat probasin promoter fragment driven firefly luciferase reporter assay", "assay_type": "cell-based, COS-1"}},
  "data": [
    {"smiles": "N#Cc1ccc(N2[C@@H]3CC[C@H]2C[C@@H](O)C3)cc1Cl", "values": [
      {"measurement": "IC50", "setting": "Androgen receptor [1]", "result": 31.7, "unit": "nM"},
      {"measurement": "IC50", "setting": "Androgen receptor [2]", "result": 31.7, "unit": "nM"}
    ]},
    {"smiles": "N#Cc1ccc(N2C3CCC2CC(=O)C3)cc1C(F)(F)F", "values": [
      {"measurement": "IC50", "setting": "Androgen receptor [1]", "result": 66, "unit": "nM"},
      {"measurement": "IC50", "setting": "Androgen receptor [2]", "result": 66, "unit": "nM"}
    ]},
    {"smiles": "Cc1c(N2C3CCC2CC(C)(O)C3)ccc(C#N)c1Cl", "note": "(stereo unspecified)", "values": [
      {"measurement": "IC50", "setting": "Androgen receptor [1]", "result": 2.11, "unit": "nM"},
      {"measurement": "IC50", "setting": "Androgen receptor [2]", "result": 2.11, "unit": "nM"}
    ]},
    {"smiles": "N#Cc1ccc(N2[C@H]3CC[C@H]2CC(O)C3)cc1C(F)(F)F", "note": "(relative stereo)", "values": [
      {"measurement": "IC50", "setting": "Androgen receptor [1]", "result": 39.8, "unit": "nM"},
      {"measurement": "IC50", "setting": "Androgen receptor [2]", "result": 39.8, "unit": "nM"}
    ]},
    {"smiles": "CC1(O)C[C@@H]2CC[C@@H](C1)N2c1ccc(C#N)c(C(F)(F)F)c1", "note": "(relative stereo)", "values": [
      {"measurement": "IC50", "setting": "Androgen receptor [1]", "result": 29.3, "unit": "nM"},
      {"measurement": "IC50", "setting": "Androgen receptor [2]", "result": 29.3, "unit": "nM"}
    ]},
    {"smiles": "N#Cc1ccc(N2[C@H]3CC[C@H]2CC(NCc2ccccc2)C3)cc1C(F)(F)F", "note": "(relative stereo)", "values": [
      {"measurement": "IC50", "setting": "Androgen receptor [1]", "result": 233, "unit": "nM"},
      {"measurement": "IC50", "setting": "Androgen receptor [2]", "result": 233, "unit": "nM"}
    ]},
    {"smiles": "CS(=O)(=O)NC1C[C@@H]2CC[C@@H](C1)N2c1ccc(C#N)c(C(F)(F)F)c1", "note": "(relative stereo)", "values": [
      {"measurement": "IC50", "setting": "Androgen receptor [1]", "result": 2650, "unit": "nM"},
      {"measurement": "IC50", "setting": "Androgen receptor [2]", "result": 2650, "unit": "nM"}
    ]},
    {"smiles": "CCS(=O)(=O)NC1C[C@@H]2CC[C@@H](C1)N2c1ccc(C#N)c(C(F)(F)F)c1", "note": "(relative stereo)", "values": [
      {"measurement": "IC50", "setting": "Androgen receptor [1]", "result": 2040, "unit": "nM"},
      {"measurement": "IC50", "setting": "Androgen receptor [2]", "result": 2040, "unit": "nM"}
    ]}
  ]
}
